Source: ChEMBL document CHEMBL1201862, “PubChem BioAssay data set” (2004)
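Assay format: 96-well plates, 48-hour exposure. Here, GI50 denotes the concentration required for 50% inhibition of growth.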 Activity calls are given as the source filed them. Rule as the data show it: active = GI50 up to about 1.1 µM and inactive = higher. Non-standard residues stand in square brackets, D forms with d. Residues, ends and D or L forms follow the SMILES beside them. ΔPro = O=C(O)[CH]1C=CCN1

What was measured:
Assay in all cases: NCI-60 cell line screen, 48 h
KM12 = test system: KM12
MDA-MB-435 = test system: MDA-MB-435
OVCAR-3 = test system: OVCAR-3
TK-10 = test system: TK-10
SK-OV-3 = test system: SK-OV-3
NCI-H460 = test system: NCI-H460
Malme-3M = test system: Malme-3M
Hs-578T = test system: Hs-578T
UACC-257 = test system: UACC-257
COLO 205 = test system: COLO 205
SNB-19 = test system: SNB-19
HCC 2998 = test system: HCC 2998
RPMI-8226 = test system: RPMI-8226
NCI-H23 = test system: NCI-H23
A498 = test system: A498
RXF 393 = test system: RXF 393
UACC-62 = test system: UACC-62
SK-MEL-5 = test system: SK-MEL-5
OVCAR-4 = test system: OVCAR-4
OVCAR-8 = test system: OVCAR-8
SW-620 = test system: SW-620
MDA-MB-231 = test system: MDA-MB-231
A549 = test system: A549
MDA-N = test system: MDA-N
HCT-15 = test system: HCT-15
HT-29 = test system: HT-29
SNB-75 = test system: SNB-75
EKVX = test system: EKVX
NCI-H226 = test system: NCI-H226
SN12C = test system: SN12C
MCF7 = test system: MCF7
NCI-H522 = test system: NCI-H522
SK-MEL-2 = test system: SK-MEL-2
T47D = test system: T47D
PC-3 = test system: PC-3
OVCAR-5 = test system: OVCAR-5
HOP-92 = test system: HOP-92
U-251 = test system: U-251
LOX IMVI = test system: LOX IMVI
HOP-62 = test system: HOP-62
SF-295 = test system: SF-295
CAKI-1 = test system: CAKI-1
NCI/ADR-RES = test system: NCI/ADR-RES
MOLT-4 = test system: MOLT-4
SK-MEL-28 = test system: SK-MEL-28
K562 = test system: K562
DU-145 = test system: DU-145
SR = test system: SR
UO-31 = test system: UO-31
HL-60 = test system: HL-60
CCRF-CEM = test system: CCRF-CEM
M14 = test system: M14
BT-549 = test system: BT-549
786-0 = test system: 786-0
HCT-116 = test system: HCT-116
SF-539 = test system: SF-539
SF-268 = test system: SF-268
ACHN = test system: ACHN
IGROV-1 = test system: IGROV-1
SNB-78 = test system: SNB-78
DMS-114 = test system: DMS-114

## O=C(CCSC1=NCCCN1)c1ccc(F)cc1
KM12
  GI50: 19.7 µM (inactive)
MDA-MB-435
  GI50: 18.5 µM (inactive)
OVCAR-3
  GI50: 22.9 µM (inactive)
TK-10
  GI50: 15.8 µM (inactive)
SK-OV-3
  GI50: 21.3 µM (inactive)
NCI-H460
  GI50: 22 µM (inactive)
Malme-3M
  GI50: 7.26 µM (inactive)
Hs-578T
  GI50: 22 µM (inactive)
UACC-257
  GI50: 18.8 µM (inactive)
COLO 205
  GI50: 5.98 µM (inactive)
SNB-19
  GI50: 22.1 µM (inactive)
HCC 2998
  GI50: 18.6 µM (inactive)
RPMI-8226
  GI50: 2.15 µM (inactive)
NCI-H23
  GI50: 19.4 µM (inactive)
A498
  GI50: 20.6 µM (inactive)
RXF 393
  GI50: 17.2 µM (inactive)
UACC-62
  GI50: 17.2 µM (inactive)
SK-MEL-5
  GI50: 18.9 µM (inactive)
OVCAR-4
  GI50: 21.6 µM (inactive)
OVCAR-8
  GI50: 31.9 µM (inactive)
SW-620
  GI50: 2.86 µM (inactive)
MDA-MB-231
  GI50: 21.5 µM (inactive)
A549
  GI50: 20.4 µM (inactive)
MDA-N
  GI50: 17.3 µM (inactive)
HCT-15
  GI50: 13.1 µM
HT-29
  GI50: 20.2 µM (inactive)
SNB-75
  GI50: 19 µM (inactive)
EKVX
  GI50: 12.7 µM (inactive)
NCI-H226
  GI50: 17.4 µM (inactive)
SN12C
  GI50: 22.2 µM (inactive)
MCF7
  GI50: 4.41 µM (inactive)
NCI-H522
  GI50: 2.08 µM (inactive)
SK-MEL-2
  GI50: 18.2 µM (inactive)
T47D
  GI50: 21.9 µM (inactive)
PC-3
  GI50: 14.9 µM (inactive)
OVCAR-5
  GI50: 15 µM (inactive)
HOP-92
  GI50: 20.6 µM (inactive)
U-251
  GI50: 17.5 µM (inactive)
LOX IMVI
  GI50: 18.9 µM (inactive)
HOP-62
  GI50: 27.8 µM (inactive)
SF-295
  GI50: 37.8 µM (inactive)
CAKI-1
  GI50: 17.2 µM (inactive)
NCI/ADR-RES
  GI50: 28.1 µM (inactive)
MOLT-4
  GI50: 2.62 µM (inactive)
SK-MEL-28
  GI50: 18.7 µM (inactive)
K562
  GI50: 3.13 µM (inactive)
DU-145
  GI50: 17.4 µM (inactive)
SR
  GI50: 3.3 µM (inactive)
UO-31
  GI50: 5.83 µM (inactive)
HL-60
  GI50: 10.7 µM (inactive)
CCRF-CEM
  GI50: 2.61 µM (inactive)
M14
  GI50: 15.6 µM (inactive)
BT-549
  GI50: 18.2 µM (inactive)
786-0
  GI50: 4.02 µM (inactive)
HCT-116
  GI50: 20.1 µM (inactive)
SF-539
  GI50: 15.7 µM (inactive)
SF-268
  GI50: 22.9 µM (inactive)
ACHN
  GI50: 15.5 µM (inactive)
IGROV-1
  GI50: 18 µM (inactive)

## COc1cc(Cc2c(C)cc(OC)c3[nH]c4ccccc4c23)cc2c1[nH]c1ccccc12
SNB-78
  GI50: 5.79 µM (inactive)
OVCAR-3
  GI50: 5.42 µM (inactive)
SNB-19
  GI50: 8.85 µM (inactive)
RPMI-8226
  GI50: 9.95 µM (inactive)
OVCAR-8
  GI50: 4.57 µM (inactive)
OVCAR-5
  GI50: 4.99 µM (inactive)
DMS-114
  GI50: 10.5 µM (inactive)

## O=C(O)C1C=CCN1C(=O)C1C=CCN1C(=O)C1C=CCN1 (stereo not given) (H-[ΔPro]-[ΔPro]-[ΔPro]-OH; configuration not given here)
KM12
  GI50: > 100 µM (inactive)
MDA-MB-435
  GI50: > 100 µM (inactive)
OVCAR-3
  GI50: > 100 µM (inactive)
TK-10
  GI50: 30.1 µM (inactive)
SK-OV-3
  GI50: > 100 µM (inactive)
NCI-H460
  GI50: > 100 µM (inactive)
Malme-3M
  GI50: > 100 µM (inactive)
Hs-578T
  GI50: > 100 µM (inactive)
UACC-257
  GI50: > 100 µM (inactive)
COLO 205
  GI50: > 100 µM (inactive)
SNB-19
  GI50: > 100 µM (inactive)
HCC 2998
  GI50: > 100 µM (inactive)
RPMI-8226
  GI50: > 100 µM (inactive)
NCI-H23
  GI50: > 100 µM (inactive)
A498
  GI50: > 100 µM (inactive)
RXF 393
  GI50: 4.21 µM (inactive)
UACC-62
  GI50: > 100 µM (inactive)
SK-MEL-5
  GI50: > 100 µM (inactive)
OVCAR-4
  GI50: > 100 µM (inactive)
OVCAR-8
  GI50: > 100 µM (inactive)
SW-620
  GI50: > 100 µM (inactive)
MDA-MB-231
  GI50: > 100 µM (inactive)
A549
  GI50: > 100 µM (inactive)
MDA-N
  GI50: > 100 µM (inactive)
HCT-15
  GI50: > 100 µM
HT-29
  GI50: > 100 µM (inactive)
SNB-75
  GI50: > 100 µM (inactive)
EKVX
  GI50: > 100 µM (inactive)
NCI-H226
  GI50: 33.5 µM (inactive)
SN12C
  GI50: > 100 µM (inactive)
MCF7
  GI50: > 100 µM (inactive)
NCI-H522
  GI50: > 100 µM (inactive)
SK-MEL-2
  GI50: > 100 µM (inactive)
T47D
  GI50: > 100 µM (inactive)
PC-3
  GI50: > 100 µM (inactive)
OVCAR-5
  GI50: > 100 µM (inactive)
HOP-92
  GI50: > 100 µM (inactive)
U-251
  GI50: > 100 µM (inactive)
LOX IMVI
  GI50: > 100 µM (inactive)
HOP-62
  GI50: > 100 µM (inactive)
SF-295
  GI50: > 100 µM (inactive)
CAKI-1
  GI50: > 100 µM (inactive)
NCI/ADR-RES
  GI50: > 100 µM (inactive)
MOLT-4
  GI50: > 100 µM (inactive)
SK-MEL-28
  GI50: > 100 µM (inactive)
K562
  GI50: > 100 µM (inactive)
DU-145
  GI50: > 100 µM (inactive)
SR
  GI50: > 100 µM (inactive)
UO-31
  GI50: > 100 µM (inactive)
HL-60
  GI50: > 100 µM (inactive)
CCRF-CEM
  GI50: > 100 µM (inactive)
M14
  GI50: > 100 µM (inactive)
BT-549
  GI50: > 100 µM (inactive)
786-0
  GI50: > 100 µM (inactive)
HCT-116
  GI50: > 100 µM (inactive)
SF-539
  GI50: > 100 µM (inactive)
SF-268
  GI50: > 100 µM (inactive)
ACHN
  GI50: > 100 µM (inactive)
IGROV-1
  GI50: > 100 µM (inactive)
